Laboratory results as given in ChEMBL document CHEMBL1201861, “Genomics of Drug Sensitity in Cancer screening data, Wellcome Trust Sanger Institute”.
pIC50: −log10 of the molar value.

Experiments:
Format in all cases: functional, cell-based
TGBC11TKB = assay: cells; settings: Homo sapiens;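 note: growth inhibition of human TGBC11TKB cells, measured by a cell viability assay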
Description: SANGER: Inhibition of human TGBC11TKB cell growth in a cell viability assay.

EPLC-272H = assay: cells; settings: Homo sapiens
Description: SANGER: Inhibition of human EPLC-272H cell growth in a cell viability assay.

D-423MG = assay: cells; settings: Homo sapiens
Description: SANGER: Inhibition of human D-423MG cell growth in a cell viability assay.

TI-73 = assay: cells; settings: Homo sapiens;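 note: cell viability assay measuring how much compounds suppress growth of the cultured cell line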
Description: SANGER: Inhibition of human TI-73 cell growth in a cell viability assay.

NCI-H1975 = assay: cells; settings: Homo sapiens
Description: SANGER: Inhibition of human NCI-H1975 cell growth in a cell viability assay.

SW900 = assay: cells; settings: Homo sapiens;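 note: IC50 is the concentration that inhibits SW900 cell growth, measured by a cell viability assay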
Description: SANGER: Inhibition of human SW900 cell growth in a cell viability assay.

NCI-H2029 = assay: cells; settings: Homo sapiens;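 note: Read-out is a viability assay on the cultured cells, and IC50 is the concentration that suppresses cell growth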
Description: SANGER: Inhibition of human NCI-H2029 cell growth in a cell viability assay.

BALL-1 = assay: cells; settings: Homo sapiens;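 note: growth inhibition of BALL-1 cells, read out with a cell viability assay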
Description: SANGER: Inhibition of human BALL-1 cell growth in a cell viability assay.

BT-549 = assay: cells; settings: Homo sapiens
Description: SANGER: Inhibition of human BT-549 cell growth in a cell viability assay.

ECC10 = assay: cells; settings: Homo sapiens;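 note: growth inhibition of ECC10 cells, read out by a cell viability assay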
Description: SANGER: Inhibition of human ECC10 cell growth in a cell viability assay.

SW 1116 = assay: cells; settings: Homo sapiens;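 note: growth inhibition of SW1116 cells, read out with a cell viability assay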
Description: SANGER: Inhibition of human SW1116 cell growth in a cell viability assay.

YH-13 = assay: cells; settings: Homo sapiens;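 note: cell viability readout of growth suppression in the human YH-13 cell line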
Description: SANGER: Inhibition of human YH-13 cell growth in a cell viability assay.

D-566MG = assay: cells; settings: Homo sapiens
NCI-H1666 = assay: cells; settings: Homo sapiens;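 note: growth inhibition of the cell line, read out with a cell viability assay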
Description: SANGER: Inhibition of human NCI-H1666 cell growth in a cell viability assay.

NCI-H2291 = assay: cells; settings: Homo sapiens
Description: SANGER: Inhibition of human NCI-H2291 cell growth in a cell viability assay.

LU-135 = assay: cells; settings: Homo sapiens
Description: SANGER: Inhibition of human LU-135 cell growth in a cell viability assay.

EFE-184 = assay: cells; settings: Homo sapiens
Description: SANGER: Inhibition of human EFE-184 cell growth in a cell viability assay.

C-4-II = assay: SANGER: Inhibition of human C-4-II cell growth in a cell viability assay.
CCF-STTG1 = assay: cells; settings: Homo sapiens;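 note: growth inhibition of human CCF-STTG1 cells, determined with a cell viability read-out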
Description: SANGER: Inhibition of human CCF-STTG1 cell growth in a cell viability assay.

Caov-4 = assay: cells; settings: Homo sapiens
Description: SANGER: Inhibition of human Caov-4 cell growth in a cell viability assay.

ECC12 = assay: cells; settings: Homo sapiens
Description: SANGER: Inhibition of human ECC12 cell growth in a cell viability assay.

NCI-H838 = assay: cells; settings: Homo sapiens;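 note: growth inhibition of human NCI-H838 cells, read out by a cell viability assay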
Description: SANGER: Inhibition of human NCI-H838 cell growth in a cell viability assay.

Calu-1 = assay: SANGER: Inhibition of human Calu-1 cell growth in a cell viability assay.
IPC-298 = assay: SANGER: Inhibition of human IPC-298 cell growth in a cell viability assay.
Caov-3 cell line = assay: cells; settings: Homo sapiens;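 note: cell growth inhibition read out by a viability assay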
Description: SANGER: Inhibition of human Caov-3 cell growth in a cell viability assay.

DV-90 = assay: cells; settings: Homo sapiens;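 note: Read-out is a viability assay, with IC50 reflecting the drop in DV-90 cell growth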
Description: SANGER: Inhibition of human DV-90 cell growth in a cell viability assay.

TT = assay: cells; settings: Homo sapiens
Description: SANGER: Inhibition of human TT cell growth in a cell viability assay.

SNG-M = assay: cells; settings: Homo sapiens
Description: SANGER: Inhibition of human SNG-M cell growth in a cell viability assay.

PLC-PRF-5 = assay: cells; settings: Homo sapiens;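 note: growth inhibition of human PLC-PRF-5 cells, read out with a viability assay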
Description: SANGER: Inhibition of human PLC-PRF-5 cell growth in a cell viability assay.

MES-SA = assay: cells; settings: Homo sapiens;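 note: growth inhibition of human MES-SA cells, read out with a cell viability assay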
Description: SANGER: Inhibition of human MES-SA cell growth in a cell viability assay.

SNU-475 = assay: cells; settings: Homo sapiens
Description: SANGER: Inhibition of human SNU-475 cell growth in a cell viability assay.

NCI-H1618 = assay: cells; settings: Homo sapiens;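 note: growth inhibition of human NCI-H1618 cells, measured by a cell viability assay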
Description: SANGER: Inhibition of human NCI-H1618 cell growth in a cell viability assay.

NCI-H2107 = assay: SANGER: Inhibition of human NCI-H2107 cell growth in a cell viability assay.
CRO-AP2 = assay: SANGER: Inhibition of human CRO-AP2 cell growth in a cell viability assay.
NCI-H128 = assay: SANGER: Inhibition of human NCI-H128 cell growth in a cell viability assay.; settings: Homo sapiens, NCI-H128
CP67-MEL = assay: SANGER: Inhibition of human CP67-MEL cell growth in a cell viability assay.
H9 = assay: cells; settings: Homo sapiens
Description: SANGER: Inhibition of human H9 cell growth in a cell viability assay.

SMILES | pIC50 (TGBC11TKB) | pIC50 (EPLC-272H) | pIC50 (D-423MG) | pIC50 (TI-73) | pIC50 (NCI-H1975) | pIC50 (SW900) | pIC50 (NCI-H2029) | pIC50 (BALL-1) | pIC50 (BT-549) | pIC50 (ECC10) | pIC50 (SW 1116) | pIC50 (YH-13) | pIC50 (D-566MG) | pIC50 (NCI-H1666) | pIC50 (NCI-H2291) | pIC50 (LU-135) | pIC50 (ECC12) | also measured
CC1=C(/C=C/C(C)=C/C=C/C(C)=C/C(=O)O)C(C)(C)CCC1 [TRETINOIN] | < 5.00 | < 5.00 | < 5.00 | < 5.00 | < 5.00 | < 5.00 | < 5.00 | < 5.00 | < 5.00 | 5.62 | < 5.00 | < 5.00 | < 5.00 | < 5.00 | < 5.00 | < 5.00 | – | –
Cc1ccc(C(=O)Nc2ccc(CN3CCN(C)CC3)c(C(F)(F)F)c2)cc1C#Cc1cnc2cccnn12 [PONATINIB] | – | – | – | – | – | – | – | – | – | – | – | – | – | – | – | – | < 6.29 | pIC50 (EFE-184): < 6.29; pIC50 (C-4-II): < 6.29; pIC50 (CCF-STTG1): 6.65; pIC50 (Caov-4): < 6.29; pIC50 (NCI-H838): < 6.29; pIC50 (Calu-1): < 6.29; pIC50 (IPC-298): < 6.29; pIC50 (Caov-3 cell line): < 6.29; pIC50 (DV-90): < 6.29; pIC50 (TT): < 6.29; pIC50 (SNG-M): < 6.29; pIC50 (PLC-PRF-5): < 6.29; pIC50 (MES-SA): 6.62; pIC50 (SNU-475): < 6.29; pIC50 (NCI-H1618): < 6.29
COC(=O)[C@H](CCSC)NC(=O)c1ccc(NC[C@@H](N)CS)cc1-c1ccccc1 | – | – | – | – | – | – | – | – | – | – | – | – | – | – | – | – | < 5.99 | pIC50 (EFE-184): < 5.99; pIC50 (C-4-II): < 5.99; pIC50 (CCF-STTG1): < 5.99; pIC50 (Caov-4): < 5.99; pIC50 (NCI-H838): < 5.99; pIC50 (Calu-1): < 5.99; pIC50 (IPC-298): < 5.99; pIC50 (Caov-3 cell line): < 5.99; pIC50 (DV-90): < 5.99; pIC50 (TT): < 5.99; pIC50 (SNG-M): < 5.99; pIC50 (PLC-PRF-5): < 5.99; pIC50 (MES-SA): < 5.99; pIC50 (SNU-475): < 5.99; pIC50 (NCI-H1618): < 5.99
Nc1ccccc1NC(=O)c1ccc(CNC(=O)OCc2cccnc2)cc1 [ENTINOSTAT] | – | – | – | – | – | – | – | – | – | – | – | – | – | – | – | – | 6.15 | pIC50 (NCI-H2107): 5.87; pIC50 (CRO-AP2): 6.77; pIC50 (NCI-H128): < 5.30
Cc1ccc(NC(=O)c2ccc(CN3CCN(C)CC3)cc2)cc1Nc1nccc(-c2cccnc2)n1 [IMATINIB] | – | – | – | – | – | – | – | – | – | – | – | – | – | – | – | – | – | pIC50 (CP67-MEL): < 5.70; pIC50 (NCI-H2107): < 5.70; pIC50 (CRO-AP2): < 5.70; pIC50 (NCI-H128): < 5.70
NC(=O)c1ccc(N(C(N)=O)c2c(F)cccc2F)nc1-c1ccc(F)cc1F [VX-702] | < 5.70 | < 5.70 | < 5.70 | < 5.70 | < 5.70 | < 5.70 | < 5.70 | < 5.70 | < 5.70 | 6.18 | < 5.70 | < 5.70 | < 5.70 | < 5.70 | < 5.70 | < 5.70 | – | –
CN(NC(=O)CC(=O)NN(C)C(=S)c1ccccc1)C(=S)c1ccccc1 [ELESCLOMOL] | < 6.70 | 7.54 | 7.92 | 7.82 | < 6.70 | 7.21 | < 6.70 | < 6.70 | 7.80 | < 6.70 | < 6.70 | 7.62 | 7.82 | < 6.70 | < 6.70 | < 6.70 | – | pIC50 (H9): 7.24
